From PubChem BioAssay AID256 (DTP/NCI, 2004)
“And” between values parts separate entries of the source, which are not always exact repeats. Equal entries are not always repeated. Toxic doses and inconclusive results are not listed. How the source made its calls: active means survival T/C of 150% or more; inactive means T/C below 125% in these data.

Test system: CD2F1 mice, L1210 leukemia ip, survival T/C
Experiment: NCI In Vivo Anticancer Drug Screen. Data for tumor model L1210 Leukemia (intraperitoneal) in CD2F1 (CDF1) mice
Details: higher = longer survival
How it was run: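 Vehicle-treated tumor-bearing mice served as controls (C) for compound-treated mice (T). Reported figure is T divided by C.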

[1] = endpoint: mean survival time, dose: 100.0 mg/kg/injection, schedule: Q01DX009 (ip), vehicle: saline with Tween-80
[2] = endpoint: mean survival time, dose: 100.0 mg/kg/injection, schedule: Q04DX003 (ip), vehicle: saline with Tween-80
[3] = endpoint: mean survival time, dose: 200.0 mg/kg/injection, schedule: Q04DX003 (ip), vehicle: saline with Tween-80
[4] = endpoint: mean survival time, dose: 400.0 mg/kg/injection, schedule: Q01DX009 (ip), vehicle: saline with Tween-80
[5] = endpoint: mean survival time, dose: 400.0 mg/kg/injection, schedule: Q04DX003 (ip), vehicle: saline with Tween-80
[6] = endpoint: mean survival time, dose: 200.0 mg/kg/injection, schedule: Q01DX009 (ip), vehicle: saline with Tween-80
[7] = endpoint: mean survival time, dose: 100.0 mg/kg/injection, schedule: Q01DX001 (ip), vehicle: saline with Tween-80
[8] = endpoint: mean survival time, dose: 200.0 mg/kg/injection, schedule: Q01DX001 (ip), vehicle: saline with Tween-80
[9] = endpoint: mean survival time, dose: 400.0 mg/kg/injection, schedule: Q01DX001 (ip), vehicle: saline with Tween-80
[10] = endpoint: mean survival time, dose: 25.0 mg/kg/injection, schedule: Q01DX001 (ip), vehicle: saline sonified
[11] = endpoint: mean survival time, dose: 100.0 mg/kg/injection, schedule: Q04DX002 (ip), vehicle: saline with Tween-80

Measured: T/C

O=[N+]([O-])c1ccc2c(ccn2C2OCC(O)C(O)C2O)c1 (configuration not stated)
inactive: endpoint: mean survival time, dose: 450.0 mg/kg/injection, schedule: Q01DX009 (ip), vehicle: saline with Tween-80 101 % of control

COc1nc(-c2ccncc2)nc(N(C)C)n1
inactive: endpoint: mean survival time, dose: 4.5 mg/kg/injection, schedule: Q04DX002 (ip), vehicle: saline 98 % of control | endpoint: mean survival time, dose: 9.0 mg/kg/injection, schedule: Q04DX002 (ip), vehicle: saline 103 % of control

Cc1ccc(C(=O)CC#N)c(C)c1
inactive: [1] 96 % of control | [2] 98 % of control | [3] 112 % of control | [4] 90 % of control | [5] 102 % of control

CC1(C(=O)O)CCCC2(C)C3=C(CCCC3)CCC12 (configuration not stated)
inactive: [1] 96 % of control | [2] 98 % of control | [6] 93 % of control | [3] 93 % of control | [4] 102 % of control | [5] 90 % of control

C1CCC(N2CCOCC2)CC1
inactive: endpoint: mean survival time, dose: 25.0 mg/kg/injection, schedule: Q04DX002 (ip), vehicle: saline 105 % of control | endpoint: mean survival time, dose: 50.0 mg/kg/injection, schedule: Q04DX002 (ip), vehicle: saline 102 % of control

CN(C)c1ccc(C(=O)c2ccc(N(C)C)cc2)cc1
inactive: [1] 96 % of control | [6] 102 % of control | [4] 109 % of control

CC(=O)N(C)NC(=O)c1ccccn1
inactive: endpoint: mean survival time, dose: 50.0 mg/kg/injection, schedule: Q01DX001 (ip), vehicle: water 106 % of control | endpoint: mean survival time, dose: 100.0 mg/kg/injection, schedule: Q01DX001 (ip), vehicle: water 103 % of control | endpoint: mean survival time, dose: 200.0 mg/kg/injection, schedule: Q01DX001 (ip), vehicle: water 102 % of control | endpoint: mean survival time, dose: 400.0 mg/kg/injection, schedule: Q01DX001 (ip), vehicle: water 103 % of control

N#CCCOS(=O)(=O)c1ccc(N)c([N+](=O)[O-])c1
inactive: [7] 103 % of control | [1] 93 % of control | [8] 100 % of control | [6] 96 % of control | [9] 102 % of control | [4] 96 % of control

[Cl][Pt+2][Cl].[NH-]N1CCN([NH-])CC1
inactive: endpoint: mean survival time, dose: 12.5 mg/kg/injection, schedule: Q04DX003 (ip), vehicle: saline with Tween-80 105 % of control | endpoint: mean survival time, dose: 25.0 mg/kg/injection, schedule: Q04DX003 (ip), vehicle: saline with Tween-80 90 % of control | endpoint: mean survival time, dose: 50.0 mg/kg/injection, schedule: Q04DX003 (ip), vehicle: saline with Tween-80 98 % of control | [2] 94 % of control | [3] 102 % of control

O=S(=O)(Nc1c2ccccc2c(NS(=O)(=O)c2ccccc2)c2ccccc12)c1ccccc1
inactive: [10] 96 % of control | endpoint: mean survival time, dose: 50.0 mg/kg/injection, schedule: Q01DX001 (ip), vehicle: saline sonified 90 % of control | endpoint: mean survival time, dose: 100.0 mg/kg/injection, schedule: Q01DX001 (ip), vehicle: saline sonified 95 % of control

CCCCCCCCCCCCNC(=O)c1ccc[n+](C)c1
inactive: endpoint: mean survival time, dose: 12.5 mg/kg/injection, schedule: Q01DX009 (ip), vehicle: saline 88 % of control | endpoint: mean survival time, dose: 12.5 mg/kg/injection, schedule: Q04DX003 (ip), vehicle: saline 93 % of control | endpoint: mean survival time, dose: 25.0 mg/kg/injection, schedule: Q04DX003 (ip), vehicle: saline 97 % of control | endpoint: mean survival time, dose: 50.0 mg/kg/injection, schedule: Q04DX003 (ip), vehicle: saline 101 % of control

CC(=N)c1ccc(C)cc1
inactive: endpoint: mean survival time, dose: 6.25 mg/kg/injection, schedule: Q01DX001 (ip), vehicle: saline sonified 96 % of control | endpoint: mean survival time, dose: 12.5 mg/kg/injection, schedule: Q01DX001 (ip), vehicle: saline sonified 96 % of control | [10] 96 % of control

CC1(C)COC(c2ccccc2Br)=N1
inactive: [7] 109 % of control | [8] 101 % of control | [9] 101 % of control

COc1ccc(Nc2ccc(C(=C3C=CC(=[N+](C)CCC#N)C=C3)c3ccc(N(C)CCC#N)cc3)cc2)cc1
inactive: [11] 90 % of control

O=C(C[n+]1cccc2ccccc21)c1ccc([N+](=O)[O-])cc1
inactive: endpoint: mean survival time, dose: 25.0 mg/kg/injection, schedule: Q04DX002 (ip), vehicle: saline with Tween-80 102 % of control | endpoint: mean survival time, dose: 50.0 mg/kg/injection, schedule: Q04DX002 (ip), vehicle: saline with Tween-80 98 % of control | [11] 102 % of control

CCOP(=O)(OCC)C(C#N)Cc1ccccc1OC (configuration not stated)
inactive: endpoint: mean survival time, dose: 100.0 mg/kg/injection, schedule: Q04DX003 (ip), vehicle: saline 98 % of control | endpoint: mean survival time, dose: 200.0 mg/kg/injection, schedule: Q04DX003 (ip), vehicle: saline 101 % of control

Cc1ccc(C)c(NC(=O)Oc2ccc(F)cc2)c1
inactive: [7] 96 % of control | [1] 94 % of control and 97 % of control | [8] 86 % of control | [6] 101 % of control | [9] 92 % of control | [4] 93 % of control and 103 % of control

O=C(Nc1cc(C(F)(F)F)ccc1Cl)c1cccc(Cl)c1
inactive: [1] 95 % of control | [2] 102 % of control | [6] 98 % of control | [3] 93 % of control | [4] 98 % of control | [5] 94 % of control

O=C1c2ccccc2C(=O)c2c1cccc2S(=O)(=O)O
inactive: [8] 97 % of control

CC(C)(C)OC(=O)NC(CSCc1ccccc1)C(=O)Oc1ccc([N+](=O)[O-])cc1 (configuration not stated)
inactive: [2] 95 % of control | [3] 90 % of control | [5] 86 % of control

CCCCCCCCCCCCCCCCCCOCC(CO)OC (configuration not stated)
inactive: endpoint: median survival time, dose: 25.0 mg/kg/injection, schedule: Q01DX009 (ip), vehicle: saline with Tween-80 104 % of control | endpoint: median survival time, dose: 50.0 mg/kg/injection, schedule: Q01DX009 (ip), vehicle: saline with Tween-80 101 % of control | endpoint: median survival time, dose: 100.0 mg/kg/injection, schedule: Q01DX009 (ip), vehicle: saline with Tween-80 103 % of control | endpoint: median survival time, dose: 200.0 mg/kg/injection, schedule: Q01DX009 (ip), vehicle: saline with Tween-80 102 % of control

Cc1cn(C2CC3OP(=O)(C(C)(C)C#N)OCC3O2)c(=O)[nH]c1=O (configuration not stated)
inactive: endpoint: median survival time, dose: 12.5 mg/kg/injection, schedule: Q01DX005 (ip), vehicle: distilled water + Tween-80 101 % of control | endpoint: median survival time, dose: 25.0 mg/kg/injection, schedule: Q01DX005 (ip), vehicle: distilled water + Tween-80 100 % of control | endpoint: median survival time, dose: 50.0 mg/kg/injection, schedule: Q01DX005 (ip), vehicle: distilled water + Tween-80 103 % of control | endpoint: median survival time, dose: 100.0 mg/kg/injection, schedule: Q01DX005 (ip), vehicle: distilled water + Tween-80 100 % of control | endpoint: median survival time, dose: 200.0 mg/kg/injection, schedule: Q01DX005 (ip), vehicle: distilled water + Tween-80 97 % of control

N#Cc1ccccc1NC1OCC(O)C(O)C1O (configuration not stated)
inactive: [1] 95 % of control | [6] 101 % of control | [4] 94 % of control

COCC(OC)C(OC)C(OC)C(C=O)OC (configuration not stated)
inactive: endpoint: mean survival time, dose: 50.0 mg/kg/injection, schedule: Q01DX001 (ip), vehicle: Klucel (hydroxypropylcellulose) (HPC) 99 % of control | endpoint: mean survival time, dose: 100.0 mg/kg/injection, schedule: Q01DX001 (ip), vehicle: Klucel (hydroxypropylcellulose) (HPC) 99 % of control | endpoint: mean survival time, dose: 200.0 mg/kg/injection, schedule: Q01DX001 (ip), vehicle: Klucel (hydroxypropylcellulose) (HPC) 105 % of control

O=C1[O][Hg][c]2cccc3cccc1c23
inactive: endpoint: mean survival time, dose: 2.5 mg/kg/injection, schedule: Q01DX009 (ip), vehicle: saline with Tween-80 88 % of control | endpoint: mean survival time, dose: 5.0 mg/kg/injection, schedule: Q01DX009 (ip), vehicle: saline with Tween-80 94 % of control | endpoint: mean survival time, dose: 10.0 mg/kg/injection, schedule: Q01DX009 (ip), vehicle: saline with Tween-80 95 % of control
